Data as given in patent EP0209274A2, “Furanone derivatives” (ELI LILLY AND COMPANY, priority 1985, dated 1987).

Legend:
[1] = biological target: Pancreatic phospholipase A2 (Homo sapiens, UniProt P04054); assay: Phospholipase A2 (PLA2) Assay; type: biochemical; settings: 30 µg/ml test compound; inhibition of 14C-free fatty acid formation
Experimental: The assay buffer contained 10 mM Tris-HCl buffer, pH 8.0, 100 mM NaCl, 1 mM CaCl2 and 1 mg/ml of bovine serum albumin. A toluene-ethanol (1:1 v/v) solution of phosphatidiylcholine, L-a-dipalmitoyl-(2-palmitoyl-1-^14C) obtained from New England Nuclear was evaporated to dryness in a flask under nitrogen and the assay buffer was added to give a substrate concentration of 9.0 x 10^-5M (specific activity = 27.7 mCi/mmol). The mixture was sonicated for 5 minutes in a Bransonic 220 Sonication Bath. Pancreatic phospholipase A2 (specific activity = 600 units/mg) was diluted with the assay buffer to give an enzyme concentration of 0.1 mg/ml. […] To initiate the enzyme reaction, 0.1 ml of the mixture containing the substrate was added to the enzyme solution and the reaction mixture was further incubated for 30 minutes at 37°C. The reaction was then terminated by the addition of 20 µl of 1M citric acid.
Fifty µl of the mixture was added to 10 ml of scintillation fluid [5.88 g of 2,5-diphenyl-oxazole and 118 mg of 1,4-bis(5-phenyloxazol-2-yl)benzene] dissolved in 650 ml of toluene and 350 ml of Triton X-100) and the radioactivity was determined in an Isocap/300 liquid scintillation counter (Searle Analytic Inc., Southfield, Michigan). Another 50 µl of the mixture was applied directly onto the spotting area of a silica gel plate (LK6D, Whatman, Clifton, N.J.) and subjected to thin layer chromatography in a solvent system of ethyl acetate:acetic acid:2,2,4-trimethylpentane:H20 (90:20:50:100, v/v/v). The silica gel on the plate was scraped in 1 cm sections, suspended in 5 ml of the Triton X-100 based scintillation fluid and the radioactivity was determined. Phosphatidylcholine remained at the origin while fatty acids migrated to a few centimeters (2-3 cm) below the solvent front. The percent of ^14C-free fatty acid formed with the test compound added was calculated as compared to the amount formed in control experiments where no test compound was added. […]

[2] = biological target: T1, fatty acid cyclooxygenase (Homo sapiens, UniProt P23219); assay: Fatty Acid Cyclooxygenase (FCO) Assay; type: biochemical; settings: 30 µg/ml test compound; inhibition of formation of PGE2; enzyme from human platelets
T1 construct: Microsomes were prepared from 185 bags of human platelets; from tissue; host or cells: human platelets (solubilized microsomes, then electrofocusing and Sephadex G-200)
Experimental: Microsomes were prepared from 185 bags of human platelets (each bag containing the platelets from one pint of blood prepared using differential centrifugation procedures). The platelets from approximately 60 bags were prepared at one time. Platelet-rich plasma (500 g) was centrifuged at 10,000 x g for 20 minutes, and the platelet pellet was suspended in 100 ml of 0.1M. potassium phosphate buffer, pH 8.0, with a Teflon glass homogenizer and sonicated for 5.0 minutes with a Bronson Sonifier (Model 350) in a rosette flask cooled in ice water. Disrupted platelets were centrifuged 15 minutes at 10,000 x g. The supernatant was centrifuged at 100,000 x g for 90 minutes and the microsomal pellets were homogenized in 25 ml of 20% sucrose containing 1.0% Triton X-100 detergent. After 30 minutes at 4°C, the solubilized microsomes were centrifuged at 100,000 x g for 60 minutes. The yellow supernatant was removed and stored at -70°C.
The solubilized fatty acid cyclooxygenase was applied to a 440 ml electrofocusing column (LKB-8012) containing 1% phisolytes (Brinkman Instruments, Westburgh, NY), pH 2-11, with the cathode at the top of the column. The enzyme was layered onto the column at the appropriate time so that its sucrose concentration was equal to that of the column gradient. This was accomplished by checking the gradient concentration periodically with a sucrose hand refractometer. Electrofocusing was carried out for 16 hours with an initial voltage of 400 V and a final voltage of 900-1,000 volts. Fractions were collected (20 ml) and assayed for PGE2 formation. Active peak fractions were pooled and concentrated by ultrafiltration (XM 100A) to a volume of 3-5 ml.
Active fractions from electrofocusing were applied to a G-200 Sephadex column (2 cm x 46 cm) and eluted with 10 mM potassium phosphate buffer, pH 7.0, in 5 ml fractions. After assay, active fractions were pooled and concentrated to 1.0 ml by ultrafiltration (XM 100A), and kept frozen at -70°C.
Enzyme activity was determined by assaying for PGE2 formation by preincubating the enzyme with 10 mmol/l imidazole phosphate buffer, pH 8.0, 2 mmol/l epinephrine, 2 mmol/1 methemoglobin, and the test compound (30 pg/ml) in a total volume of 0.2 ml for one minute at 37°C. After preincubation, 5 mmol/1 ^14C-arachidonic acid were added and the mixture was incubated an additional 0.5 minutes at 37°C. The enzyme reaction was stopped by the addition of 20 µl of indomethacin (2 mg/ml) in alcohol.
The reaction mixture was spotted (50 pl) on a silica gel (LQ6D) plate and subjected to TLC. The solvent system consisted of chloroform-methanol-glacial acetic acid (90:5:5, v/v/v) and the relative mobilities were PGF2a = 0.235, and PGE2 = 0.47. The silica gel on the plate was scraped in 1 cm sections, suspended in 5 ml of the scintillation fluid [5.88 g of 2,5-diphenyl-oxazole and 118 mg of 1,4-bis(5-phenyloxazol-2-yl)benzene] dissolved in 650 ml of toluene and 350 ml of Triton X-100) and the radioactivity was determined in an Isocap/300 liquid scintillation counter (Searle Analytic, Inc., Southfield, MI). Another 50 µl of the mixture was added to 10 ml of the Triton X-100 based scintillation fluid, and the radioactivity was determined so that the amount of radioactivity recovery from the TLC plate could be ascertained. PGE2 formation for each test compound was determined as a percent of control experiments wherein no test compound was added. Data is expressed in Table I as the percent inhibition of formation of PGE2 at a test compound concentration of 30 pg/ml.

[3] = biological target: T2, 5-Lipoxygenase (Cavia porcellus, UniProt A0A286X958); assay: 5-Lipoxygenase (5-LPO) Assay; type: biochemical, guinea pigs; settings: inhibition of 5-HETE formation; supernatant of guinea pig PMNL sonicate; read-out: 5-LPO IC50 (µg/ml) (converted)
T2 construct: The PMNL suspension was disrupted by five ½-second pulse sonication; from tissue; host or cells: guinea pig peritoneal polymorphonuclear leukocytes (30,000 x g supernatant of the sonicate)
T2 sequence (A0A286X958 1-674): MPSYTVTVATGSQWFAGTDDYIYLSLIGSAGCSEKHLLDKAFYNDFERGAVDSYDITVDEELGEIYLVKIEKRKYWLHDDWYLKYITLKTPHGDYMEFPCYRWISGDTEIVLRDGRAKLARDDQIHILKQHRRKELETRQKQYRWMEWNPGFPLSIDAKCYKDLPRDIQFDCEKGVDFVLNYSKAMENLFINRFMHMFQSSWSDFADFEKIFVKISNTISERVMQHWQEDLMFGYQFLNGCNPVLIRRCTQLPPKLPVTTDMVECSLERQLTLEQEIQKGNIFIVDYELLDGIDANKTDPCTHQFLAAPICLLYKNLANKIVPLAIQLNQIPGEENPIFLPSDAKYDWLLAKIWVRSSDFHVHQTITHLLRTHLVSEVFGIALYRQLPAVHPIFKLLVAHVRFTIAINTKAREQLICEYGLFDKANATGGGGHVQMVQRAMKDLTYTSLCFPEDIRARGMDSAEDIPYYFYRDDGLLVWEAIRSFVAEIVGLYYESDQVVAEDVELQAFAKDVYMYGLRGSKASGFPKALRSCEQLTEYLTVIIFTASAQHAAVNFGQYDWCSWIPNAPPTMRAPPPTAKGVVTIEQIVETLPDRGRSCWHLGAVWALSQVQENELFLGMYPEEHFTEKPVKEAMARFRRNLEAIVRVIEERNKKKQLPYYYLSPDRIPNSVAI
Experimental: Ten milliliters of a 2% casein solution were injected intraperitoneally to guinea pigs weighing 250-300 gm. After 16-18 hours, the guinea pigs were killed by suffocation in a carbon dioxide chamber. The peritoneal cavity was infused with 70 ml of saline and 40-50 ml of the fluid were recovered from the cavity. After centrifugation, cell pellets were washed twice in Hank's balanced salt solution (HBSS) without calcium ion.
The cells were then suspended in 5 ml of sodium phosphate buffer, pH 7.1 containing 1 mM EDTA, and 0.1% gelatin. About 20-30 x 10^7 cells were obtained from one guinea pig.
The PMNL suspension was disrupted by five ½-second pulse sonication at the setting of 3 in a Branson Sonifier, Model 350, equipped with a microtip. The sonicates were combined and centrifuged at 30,000 x g for 10 minutes. The supernatant was kept frozen at -70°C until use.
. Enzyme activity was determined by assaying for 5-HETE formatiun by first incubating 0.2 ml of the supernatant obtained from the PMNL sonicate with the test compound, 1 mM CaCl2, 2 mM ATP, and 1 mM GSH for 5 minutes at 37°C. The mixture is treated with 5 pM ^14C-arachidonic acid and incubated at 37°C an additional 10 minutes. The enzyme reaction was then stopped by the addition of 10 µl of 1M citric acid and 10 µl of an alcohol solution containing 20 mg/ml each of indomethacin and butylated hydroxyanisole (BHA). The reaction mixture was spotted (50 µl) on a silica gel plate (Baker TLC plate S1250-PA-19C) and subjected to TLC in a solvent system of ethyl acetate/2,2,4-tri- methylpentane/glacial acetic acid/H20 (90:50:20:100).
The radioactivity of the arachidonic acid and its metabolites (5-HETE and LTB4) was visualized from a developed x-ray film which had been exposed to the TLC plate 1-2 days. The amount of 5-HETE formed was quanti- tated by scraping the silica gel area corresponding to the spot on the x-ray film, and the radioactivity determined in a Isocap/300 liquid scintillation counter (Searle Analytic, Inc.).
The percent inhibition of the formation of 5-HETE was determined for each concentration of test compound tested as compared to a control experiment wherein no test compound was added. The concentration and percent inhibition values were plotted on semi log paper and the concentration in which formation of 5-HETE is inhibited by 50% (ICso) was determined by interpolation.

Chain of Pancreatic phospholipase A2 (P04054 23-148): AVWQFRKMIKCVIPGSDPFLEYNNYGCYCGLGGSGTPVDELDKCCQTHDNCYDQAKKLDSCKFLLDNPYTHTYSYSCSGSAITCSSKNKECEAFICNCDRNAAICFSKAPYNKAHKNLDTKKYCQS
T1 sequence (P23219 24-599): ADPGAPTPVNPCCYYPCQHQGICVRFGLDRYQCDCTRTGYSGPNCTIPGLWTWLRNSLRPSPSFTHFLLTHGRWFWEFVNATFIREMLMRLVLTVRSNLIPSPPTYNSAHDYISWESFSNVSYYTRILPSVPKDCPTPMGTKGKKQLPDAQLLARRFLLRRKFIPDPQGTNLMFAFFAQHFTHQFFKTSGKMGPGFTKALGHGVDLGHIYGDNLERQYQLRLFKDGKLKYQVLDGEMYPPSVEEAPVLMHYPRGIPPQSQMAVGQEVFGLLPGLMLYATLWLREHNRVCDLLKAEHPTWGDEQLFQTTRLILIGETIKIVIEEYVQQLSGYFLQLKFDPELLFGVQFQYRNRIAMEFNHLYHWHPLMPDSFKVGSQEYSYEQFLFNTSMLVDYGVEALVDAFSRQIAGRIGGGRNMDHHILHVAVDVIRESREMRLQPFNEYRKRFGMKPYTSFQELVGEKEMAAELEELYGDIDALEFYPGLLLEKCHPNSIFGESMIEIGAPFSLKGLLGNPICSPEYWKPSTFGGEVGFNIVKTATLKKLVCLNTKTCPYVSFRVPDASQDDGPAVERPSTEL

SMILES | inhibition at 30 µg/mL [1] | inhibition at 30 µg/mL [2] | IC50 [3]
C=CCCCCCCCC1=CC(=O)OC1O (stereo not drawn) [Example 7, 5-Hydroxy-4-(8-nonenyl)-2(5H)-furanone] | 0% | 23% | –
CCCCCC/C=C\CCCCCCCCC1=CC(=O)OC1O (stereo not drawn) [Example 8, (Z)-4-(9-hexadecenyl)-5-hydroxy-2(5H)-furanone] | 36% | 21% | –
CCCCCCCC/C=C\CCCCCCCCCCC1=CC(=O)OC1O (stereo not drawn) [Example 10, (Z)-4-(11-eicosenyl)-5-hydroxy-2(5H)-furanone] | 26% | 25% | –
O=C1C=C(CCCCCOc2ccc3ccccc3c2)C(O)O1 (stereo not drawn) [Example 16, 5-Hydroxy-4-[5-(2-naphthalenyloxy)pentyl]-2(5H)-furanone] | – | 27% | 9.6 µM
O=C1C=C(CCCCOc2ccccc2Cc2ccccc2)C(O)O1 (stereo not drawn) [Example 17, 5-Hydroxy-4-[4-(2-benzylphenoxy)butyl]-2(5H)-furanone] | – | 12% | 8.87 µM
CCCC/C=C\CCCCCCCCCCC1=CC(=O)OC1O (stereo not drawn) [Example 21, (Z)-4-(11-hexadecenyl)-5-hydroxy-2(5H)-furanone] | 0% | – | 93 µM
